Assays:
[1] = Heat stability of Melatonin adsorbed or linked to a substrate; assay type: physicochemical
Excerpt: In the practice of the invention, the coadministration, adsorption or linking of Melatonin to the bone graft substrate preferably involves Melatonin per se, although the use of the precursors or metabolites of Melatonin (including but not limited to 5-hydroxytryptophan (5OHTrp), 5-hydroxytryptamine (5HT), N-acetyl-5-hydroxytryptamine (NA5OHT) or 6-hydroxymelatonin (6OHMEL)) still falls within the scope of this invention albeit in a less preferred way.

mesenchymal stem cells = settings: cited from earlier work

| Compound | stability to autoclaving ([1]; adsorbed or linked to substrate, autoclaved such as at 180° C.) | stability to sintering ([1]; sintering temperatures used to make bone grafts and implants) | spreading of the cells (mesenchymal stem cells; mesenchymal stem cells) | attachment of mesenchymal stem cells (mesenchymal stem cells; substrates: hydroxyapatite, titanium, polymer scaffolds) |
| --- | --- | --- | --- | --- |
| COc1ccc2[nH]cc(CCNC(C)=O)c2c1 [Melatonin, N-acetyl-5-methoxytryptamine] | surviving the autoclaving process intact | cannot survive |  |  |
| arg-gly-asp [RDG peptide] |  |  | does not enhance the spreading | can increase the attachment |
